According to patent publication US10285983B2, “3-(1H-pyrrolo[2,3-B]pyridin-2-yl)-1H-pyrazolo[3,4-B] pyridines and therapeutic uses thereof” (Samumed, LLC, priority 2015, dated 2019):

Columns and labels:
Assay type in all cases: cell-based
[1] = tested on: Wnt activity (Sp5-Luc reporter, SW480 colon carcinoma cells); assay: Wnt activity screening assay, Sp5-Luc reporter gene in SW480 cells; conditions: Homo sapiens; for inhibition at 10 µM: given for EC50 >10 μM, read-out: percent inhibition at 10 μM; for EC50: overnight incubation
Summary of the method: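 SW480 colon carcinoma cells stably expressing firefly luciferase under a human Sp5 promoter (eight TCF/LEF sites), plated in 1% FBS medium. 10-point 1:3 dilutions from 10 μM, 0.1% DMSO final, overnight at 37 °C; luminescence normalized to DMSO, four-parameter fit for EC50, % inhibition at 10 μM if EC50 >10 μM.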

[2] = tested on: IL-6 (THP-1 human monocyte cell line); assay: IL-6 inhibition in LPS-stimulated THP-1 cells (HTRF); conditions: LPS 500 ng/mL; for EC50: 22 hours, IL6 HTRF; for inhibition at 10 µM: given for EC50 >10 μM, read-out: percent inhibition at 10 μM
Summary of the method: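 THP-1 cells, serum-reduced to 1% FBS for 24 h, preincubated 2 h at 37° C with compound (10-point, 1:3 series, 0.1% DMSO), then stimulated with 500 ng/mL LPS for 22 h. IL-6 quantified by HTRF 665/620 nm ratio, normalized to DMSO; EC50 by four-parameter fit, else percent inhibition at 10 μM.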

SW480 colon cancer cells = assay: Cell viability assay (CellTiter-Blue); conditions: Homo sapiens, 96 h, four days; for inhibition at 10 µM: given for EC50 >10 μM, read-out: percent inhibition at 10 μM
Summary of the method: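 SW480 cells (~2×10^3 per well) were exposed to compound for four days at 37 °C/5% CO2, using 8-point 1:3 dilutions from 10 μM to 0.0045 μM in duplicate. Viability was read by resazurin reduction (CellTiter-Blue, ~3 h, Ex 560/Em 590 nm). EC50 came from non-linear regression; above 10 μM, percent inhibition at 10 μM is given.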

Structure (SMILES) | inhibition at 10 µM [1] | EC50 [1] | EC50 [2] | inhibition at 10 µM [2] | EC50 (SW480 colon cancer cells) | inhibition at 10 µM (SW480 colon cancer cells)
Fc1ccc(-c2ccnc3[nH]c(-c4n[nH]c5ncc(-c6cncc(CN7CCC(F)(F)C7)c6)cc45)cc23)cc1 [Compound 54, 5-(5-((3,3-Difluoropyrrolidin-1-yl)methyl)pyridin-3-yl)-3-(4-(4-fluorophenyl)-1H-pyrrolo[2,3-b]pyridin-2-yl)-1H-pyrazolo[3,4-b]pyridine] | 8.7% | > 10 µM | > 10 µM | 32.3% | > 10 µM | 6.9%
O=C(Nc1cncc(-c2cnc3[nH]nc(-c4cc5c(-c6cccnc6)ccnc5[nH]4)c3c2)c1)C1CC1 [Compound 104, N-(5-(3-(4-(Pyridin-3-yl)-1H-pyrrolo[2,3-b]pyridin-2-yl)-1H-pyrazolo[3,4-b]pyridin-5-yl)pyridin-3-yl)cyclopropanecarboxamide] | 0% | > 10 µM | > 10 µM | 35.8% | > 10 µM | 10.4%
O=C(Nc1cncc(-c2cnc3[nH]nc(-c4cc5cccnc5[nH]4)c3c2)c1)C1CCCC1 [Compound 274, N-(5-(3-(1H-Pyrrolo[2,3-b]pyridin-2-yl)-1H-pyrazolo[3,4-b]pyridin-5-yl)pyridin-3-yl)cyclopentanecarboxamide] | 40.3% | > 10 µM | 0.415 µM | – | > 10 µM | 54.2%
CC(C)CC(=O)Nc1cncc(-c2cnc3[nH]nc(-c4cc5c(-c6cccnc6)ccnc5[nH]4)c3c2)c1 [Compound 86, 3-Methyl-N-(5-(3-(4-(pyridin-3-yl)-1H-pyrrolo[2,3-b]pyridin-2-yl)-1H-pyrazolo[3,4-b]pyridin-5-yl)pyridin-3-yl)butanamide] | 2.7% | > 10 µM | > 10 µM | 34.3% | > 10 µM | 24.1%
CN1CCN(c2ccnc3[nH]c(-c4n[nH]c5ncc(-c6cncc(NC(=O)C7CCCCC7)c6)cc45)cc23)CC1 [Compound 247, N-(5-(3-(4-(4-Methylpiperazin-1-yl)-1H-pyrrolo[2,3-b]pyridin-2-yl)-1H-pyrazolo[3,4-b]pyridin-5-yl)pyridin-3-yl)cyclohexanecarboxamide] | 6.4% | > 10 µM | 0.496 µM | – | > 10 µM | 11.7%
O=C(Nc1cncc(-c2cnc3[nH]nc(-c4cc5c(-c6ccc(F)cc6)ccnc5[nH]4)c3c2)c1)C1CCCCC1 [Compound 51, N-(5-(3-(4-(4-Fluorophenyl)-1H-pyrrolo[2,3-b]pyridin-2-yl)-1H-pyrazolo [3,4-b]pyridin-5-yl)pyridin-3-yl)cyclohexanecarboxamide] | 14.2% | > 10 µM | > 10 µM | 19.4% | > 10 µM | 17.7%
Cc1ccncc1-c1cnc2[nH]nc(-c3cc4c(-c5ccncc5)ccnc4[nH]3)c2c1 [Compound 117, 5-(4-Methylpyridin-3-yl)-3-(4-(pyridin-4-yl)-1H-pyrrolo[2,3-b]pyridin-2-yl)-1H-pyrazolo[3,4-b]pyridine] | 13% | > 10 µM | > 10 µM | 17.1% | > 10 µM | 10.1%
CC(C)CC(=O)Nc1cncc(-c2cnc3[nH]nc(-c4cc5c(-c6ccc(F)cc6)ccnc5[nH]4)c3c2)c1 [Compound 30, N-(5-(3-(4-(4-Fluorophenyl)-1H-pyrrolo[2,3-b]pyridin-2-yl)-1H-pyrazolo [3,4-b]pyridin-5-yl)pyridin-3-yl)-3-methylbutanamide] | 11.9% | > 10 µM | > 10 µM | 0% | > 10 µM | 18.5%
Cn1cc(-c2cnc3[nH]nc(-c4cc5cccnc5[nH]4)c3c2)cn1 [Compound 652, 5-(1-Methyl-1H-pyrazol-4-yl)-3-(1H-pyrrolo[2,3-b]pyridin-2-yl)-1H-pyrazolo[3,4-b]pyridine] | 23.4% | > 10 µM | 0.772 µM | – | > 10 µM | 9.2%
CC(C)(C)CC(=O)Nc1cncc(-c2cnc3[nH]nc(-c4cc5c(-c6ccccc6F)ccnc5[nH]4)c3c2)c1 [Compound 72, N-(5-(3-(4-(2-Fluorophenyl)-1H-pyrrolo[2,3-b]pyridin-2-yl)-1H-pyrazolo [3,4-b]pyridin-5-yl)pyridin-3-yl)-3,3-dimethylbutanamide] | 16% | > 10 µM | > 10 µM | 38.1% | > 10 µM | 14.7%
c1cc(N2CCCCC2)c2cc(-c3n[nH]c4ncc(-c5cncc(CN6CCCC6)c5)cc34)[nH]c2n1 [Compound 182, 3-(4-(Piperidin-1-yl)-1H-pyrrolo[2,3-b]pyridin-2-yl)-5-(5-(pyrrolidin-1-ylmethyl)pyridin-3-yl)-1H-pyrazolo[3,4-b]pyridine] | 7.1% | > 10 µM | 0.463 µM | – | > 10 µM | 26%
CN(C)CCNc1cc(F)cc(-c2ccnc3[nH]c(-c4n[nH]c5ncc(-c6cncc(NC(=O)C7CCC7)c6)cc45)cc23)c1 [Compound 469, N-(5-(3-(4-(3-((2-(Dimethylamino)ethyl)amino)-5-fluorophenyl)-1H-pyrrolo [2,3-b]pyridin-2-yl)-1H-pyrazolo[3,4-b]pyridin-5-yl)pyridin-3-yl)cyclobutanecarboxamide] | 47.5% | > 10 µM | 0.222 µM | – | > 10 µM | 0%
O=C(Nc1cncc(-c2cnc3[nH]nc(-c4cc5c(-c6cccc(F)c6)ccnc5[nH]4)c3c2)c1)C1CC1 [Compound 20, N-(5-(3-(4-(3-Fluorophenyl)-1H-pyrrolo[2,3-b]pyridin-2-yl)-1H-pyrazolo [3,4-b]pyridin-5-yl)pyridin-3-yl)cyclopropanecarboxamide] | 57.3% | > 10 µM | 2.13 µM | – | > 10 µM | 51.4%
Nc1cncc(-c2cnc3[nH]nc(-c4cc5c(-c6ccncc6)ccnc5[nH]4)c3c2)c1 [Compound 115, 5-(3-(4-(Pyridin-4-yl)-1H-pyrrolo[2,3-b]pyridin-2-yl)-1H-pyrazolo[3,4-b]pyridin-5-yl)pyridin-3-amine] | 5.6% | > 10 µM | > 10 µM | 40.6% | > 10 µM | 0%
O=C(Nc1cncc(-c2cnc3[nH]nc(-c4cc5c(-c6cccs6)ccnc5[nH]4)c3c2)c1)C1CC1 [Compound 356, N-(5-(3-(4-(Thiophen-2-yl)-1H-pyrrolo[2,3-b]pyridin-2-yl)-1H-pyrazolo[3,4-b]pyridin-5-yl)pyridin-3-yl)cyclopropanecarboxamide] | – | 6.37 µM | 0.28 µM | – | > 10 µM | 14.5%
O=C(Nc1cncc(-c2cnc3[nH]nc(-c4cc5cccnc5[nH]4)c3c2)c1)c1ccccc1 [Compound 263, N-(5-(3-(1H-Pyrrolo[2,3-b]pyridin-2-yl)-1H-pyrazolo[3,4-b]pyridin-5-yl)pyridin-3-yl)benzamide] | 29.7% | > 10 µM | 0.31 µM | – | > 10 µM | 21.1%
CN(C)CCNc1cc(F)cc(-c2ccnc3[nH]c(-c4n[nH]c5ncc(-c6cncc(NC(=O)C(C)(C)C)c6)cc45)cc23)c1 [Compound 456, N-(5-(3-(4-(3-((2-(Dimethylamino)ethyl)amino)-5-fluorophenyl)-1H-pyrrolo [2,3-b]pyridin-2-yl)-1H-pyrazolo[3,4-b]pyridin-5-yl)pyridin-3-yl)pivalamide] | 42.4% | > 10 µM | 1.52 µM | – | > 10 µM | 0%
Fc1cccc(-c2ccnc3[nH]c(-c4n[nH]c5ncc(-c6cccnc6)cc45)cc23)c1 [Compound 4, 3-(4-(3-Fluorophenyl)-1H-pyrrolo[2,3-b]pyridin-2-yl)-5-(pyridin-3-yl)-1H-pyrazolo[3,4-b]pyridine] | 7.6% | > 10 µM | > 10 µM | 22.6% | > 10 µM | 17.5%
c1ccc(CNCc2cncc(-c3cnc4[nH]nc(-c5cc6c(-c7ccncc7)ccnc6[nH]5)c4c3)c2)cc1 [Compound 136, N-Benzyl-1-(5-(3-(4-(pyridin-4-yl)-1H-pyrrolo[2,3-b]pyridin-2-yl)-1H-pyrazolo[3,4-b]pyridin-5-yl)pyridin-3-yl)methanamine] | 0% | > 10 µM | > 10 µM | 23.5% | > 10 µM | 14.9%
